Legend:
[1] = Dissolution test, USP apparatus II (Paddle Method) with sinkers, HPLC; format: physicochemical
Method: Dissolution Methods and Assay
Dissolution medium such as 0.1N HCl, phosphate buffer (pH 4.5) and phosphate buffer (pH 6.8) were prepared following USP Method. 0.3% Tween 80 was added into the medium to help solubilize the active ingredients. Dissolution conditions were summarized as in the following. Dissolution samples were analyzed by HPLC method.
Apparatus: USP apparatus II (Paddle Method) with sinkers.
Medium: 0.1N HCl, Phosphate Buffer phosphate buffer (pH 4.5) or Phosphate Buffer phosphate buffer (pH 6.8).
Filter: 10 μm HDPE full flow filter tips

[2] = Long term stability of composition of pitavastatin calcium and ezetimibe (25° C./60% RH); format: physicochemical; settings: Example 5 composition, Alu-alu blisters
Method: The composition of pitavastatin calcium and ezetimibe prepared in Example 5 of the present disclosure were packed in Alu-alu blisters and stored under long term stability (25° C./60% RH). The assay of pitavastatin calcium and ezetimibe as well as the impurities were measured.

[3] = test system: nephrectomized rats fed high-cholesterol; settings: cited from earlier work
[4] = test system: chronic kidney disease patients; settings: ezetimibe 10 mg/day co-administered with pitavastatin calcium 2 mg/day; cited from earlier work
[5] = Example 1 single layered tablet, 5 min
[6] = Example 1 single layered tablet, 10 min
[7] = Example 1 single layered tablet, 15 min
[8] = Example 1 single layered tablet, 30 min
[9] = Example 1 single layered tablet, 45 min
[10] = Example 2 double layered tablet, 5 min
[11] = Example 2 double layered tablet, 10 min
[12] = Example 2 double layered tablet, 15 min
[13] = Example 2 double layered tablet, 30 min
[14] = Example 2 double layered tablet, 45 min
[15] = pellets in one capsule (Example 5), 5 min
[16] = pellets in one capsule (Example 5), 10 min
[17] = pellets in one capsule (Example 5), 15 min
[18] = pellets in one capsule (Example 5), 20 min
[19] = pellets in one capsule (Example 5), 30 min
[20] = pellets in one capsule (Example 5), 45 min

Structure (SMILES): O=C1[C@H](CC[C@H](O)c2ccc(F)cc2)[C@@H](c2ccc(O)cc2)N1c1ccc(F)cc1 [Ezetimibe, ezetimibe]
- % Released into 0.1 N HCl with 0.3% Tween 80 at sampling time (min) [1, 5]: 56%
- % Released into Phosphate Buffer (pH 6.8) with 0.3% Tween 80 at sampling time (min) [1, 5]: 54%
- % Released into 0.1 N HCl with 0.3% Tween 80 at sampling time (min) [1, 6]: 70%
- % Released into Phosphate Buffer (pH 6.8) with 0.3% Tween 80 at sampling time (min) [1, 6]: 77%
- % Released into 0.1 N HCl with 0.3% Tween 80 at sampling time (min) [1, 7]: 77%
- % Released into Phosphate Buffer (pH 6.8) with 0.3% Tween 80 at sampling time (min) [1, 7]: 86%
- % Released into 0.1 N HCl with 0.3% Tween 80 at sampling time (min) [1, 8]: 86%
- % Released into Phosphate Buffer (pH 6.8) with 0.3% Tween 80 at sampling time (min) [1, 8]: 94%
- % Released into 0.1 N HCl with 0.3% Tween 80 at sampling time (min) [1, 9]: 91%
- % Released into Phosphate Buffer (pH 6.8) with 0.3% Tween 80 at sampling time (min) [1, 9]: 96%
- % Released into 0.1 N HCl with 0.3% Tween 80 at sampling time (min) [1, 10]: 30%
- % Released into Phosphate Buffer (pH 6.8) with 0.3% Tween 80 at sampling time (min) [1, 10]: 42%
- % Released into 0.1 N HCl with 0.3% Tween 80 at sampling time (min) [1, 11]: 56%
- % Released into Phosphate Buffer (pH 6.8) with 0.3% Tween 80 at sampling time (min) [1, 11]: 72%
- % Released into 0.1 N HCl with 0.3% Tween 80 at sampling time (min) [1, 12]: 67%
- % Released into Phosphate Buffer (pH 6.8) with 0.3% Tween 80 at sampling time (min) [1, 12]: 80%
- % Released into 0.1 N HCl with 0.3% Tween 80 at sampling time (min) [1, 13]: 79%
- % Released into Phosphate Buffer (pH 6.8) with 0.3% Tween 80 at sampling time (min) [1, 13]: 88%
- % Released into 0.1 N HCl with 0.3% Tween 80 at sampling time (min) [1, 14]: 83%
- % Released into Phosphate Buffer (pH 6.8) with 0.3% Tween 80 at sampling time (min) [1, 14]: 91%
- % Released into 0.1 N HCl with 0.3% Tween 80 at sampling time (min) [1, 15]: 71%
- % Released into Phosphate Buffer (pH 4.5) with 0.3% Tween 80 at sampling time (min) [1, 15]: 64%
- % Released into Phosphate Buffer (pH 6.8) with 0.3% Tween 80 at sampling time (min) [1, 15]: 69%
- % Released into 0.1 N HCl with 0.3% Tween 80 at sampling time (min) [1, 16]: 95%
- % Released into Phosphate Buffer (pH 4.5) with 0.3% Tween 80 at sampling time (min) [1, 16]: 99%
- % Released into Phosphate Buffer (pH 6.8) with 0.3% Tween 80 at sampling time (min) [1, 16]: 96%
- % Released into 0.1 N HCl with 0.3% Tween 80 at sampling time (min) [1, 17]: 99%
- % Released into Phosphate Buffer (pH 4.5) with 0.3% Tween 80 at sampling time (min) [1, 17]: 103%
- % Released into Phosphate Buffer (pH 6.8) with 0.3% Tween 80 at sampling time (min) [1, 17]: 102%
- % Released into 0.1 N HCl with 0.3% Tween 80 at sampling time (min) [1, 18]: 100%
- % Released into Phosphate Buffer (pH 4.5) with 0.3% Tween 80 at sampling time (min) [1, 18]: 104%
- % Released into Phosphate Buffer (pH 6.8) with 0.3% Tween 80 at sampling time (min) [1, 18]: 103%
- % Released into 0.1 N HCl with 0.3% Tween 80 at sampling time (min) [1, 19]: 101%
- % Released into Phosphate Buffer (pH 4.5) with 0.3% Tween 80 at sampling time (min) [1, 19]: 105%
- % Released into Phosphate Buffer (pH 6.8) with 0.3% Tween 80 at sampling time (min) [1, 19]: 104%
- % Released into 0.1 N HCl with 0.3% Tween 80 at sampling time (min) [1, 20]: 101%
- % Released into Phosphate Buffer (pH 4.5) with 0.3% Tween 80 at sampling time (min) [1, 20]: 105%
- % Released into Phosphate Buffer (pH 6.8) with 0.3% Tween 80 at sampling time (min) [1, 20]: 104%
- Assay (%) ([2]; 3 Months): 99.5%
- Impurities (%), Major ([2]; 3 Months): 0.06%
- Impurities (%), Total ([2]; 3 Months): 0.06%
- Assay (%) ([2]; 6 Months): 101%
- Impurities (%), Major ([2]; 6 Months): 0.06%
- Impurities (%), Total ([2]; 6 Months): 0.06%
- Assay (%) ([2]; 9 Months): 102.9%
- Impurities (%), Major ([2]; 9 Months): 0.06%
- Impurities (%), Total ([2]; 9 Months): 0.06%
- Assay (%) ([2]; 12 Months): 99.7%
- Impurities (%), Major ([2]; 12 Months): 0.06%
- Impurities (%), Total ([2]; 12 Months): 0.06%
- Assay (%) ([2]; Initial): 100%
- Impurities (%), Major ([2]; Initial): 0.06%
- Impurities (%), Total ([2]; Initial): 0.06%
- Kidney dysfunction / kidney damage [3]: confers renoprotective effects
- Proteinuria-lowering effects [4]: enhances proteinuria-lowering effects of pitavastatin calcium

Structure (SMILES): O=C([O-])C[C@H](O)C[C@H](O)/C=C/c1c(C2CC2)nc2ccccc2c1-c1ccc(F)cc1.O=C([O-])C[C@H](O)C[C@H](O)/C=C/c1c(C2CC2)nc2ccccc2c1-c1ccc(F)cc1.[Ca+2] [Pitavastatin Ca, pitavastatin calcium]
- % Released into 0.1 N HCl with 0.3% Tween 80 at sampling time (min) [1, 5]: 79%
- % Released into Phosphate Buffer (pH 6.8) with 0.3% Tween 80 at sampling time (min) [1, 5]: 69%
- % Released into 0.1 N HCl with 0.3% Tween 80 at sampling time (min) [1, 6]: 84%
- % Released into Phosphate Buffer (pH 6.8) with 0.3% Tween 80 at sampling time (min) [1, 6]: 90%
- % Released into 0.1 N HCl with 0.3% Tween 80 at sampling time (min) [1, 7]: 86%
- % Released into Phosphate Buffer (pH 6.8) with 0.3% Tween 80 at sampling time (min) [1, 7]: 95%
- % Released into 0.1 N HCl with 0.3% Tween 80 at sampling time (min) [1, 8]: 89%
- % Released into Phosphate Buffer (pH 6.8) with 0.3% Tween 80 at sampling time (min) [1, 8]: 97%
- % Released into 0.1 N HCl with 0.3% Tween 80 at sampling time (min) [1, 9]: 90%
- % Released into Phosphate Buffer (pH 6.8) with 0.3% Tween 80 at sampling time (min) [1, 9]: 98%
- % Released into 0.1 N HCl with 0.3% Tween 80 at sampling time (min) [1, 10]: 81%
- % Released into Phosphate Buffer (pH 6.8) with 0.3% Tween 80 at sampling time (min) [1, 10]: 90%
- % Released into 0.1 N HCl with 0.3% Tween 80 at sampling time (min) [1, 11]: 87%
- % Released into Phosphate Buffer (pH 6.8) with 0.3% Tween 80 at sampling time (min) [1, 11]: 96%
- % Released into 0.1 N HCl with 0.3% Tween 80 at sampling time (min) [1, 12]: 89%
- % Released into Phosphate Buffer (pH 6.8) with 0.3% Tween 80 at sampling time (min) [1, 12]: 97%
- % Released into 0.1 N HCl with 0.3% Tween 80 at sampling time (min) [1, 13]: 86%
- % Released into Phosphate Buffer (pH 6.8) with 0.3% Tween 80 at sampling time (min) [1, 13]: 99%
- % Released into 0.1 N HCl with 0.3% Tween 80 at sampling time (min) [1, 14]: 89%
- % Released into Phosphate Buffer (pH 6.8) with 0.3% Tween 80 at sampling time (min) [1, 14]: 100%
- % Released into 0.1 N HCl with 0.3% Tween 80 at sampling time (min) [1, 15]: 90%
- % Released into Phosphate Buffer (pH 4.5) with 0.3% Tween 80 at sampling time (min) [1, 15]: 82%
- % Released into Phosphate Buffer (pH 6.8) with 0.3% Tween 80 at sampling time (min) [1, 15]: 81%
- % Released into 0.1 N HCl with 0.3% Tween 80 at sampling time (min) [1, 16]: 99%
- % Released into Phosphate Buffer (pH 4.5) with 0.3% Tween 80 at sampling time (min) [1, 16]: 100%
- % Released into Phosphate Buffer (pH 6.8) with 0.3% Tween 80 at sampling time (min) [1, 16]: 98%
- % Released into 0.1 N HCl with 0.3% Tween 80 at sampling time (min) [1, 17]: 100%
- % Released into Phosphate Buffer (pH 4.5) with 0.3% Tween 80 at sampling time (min) [1, 17]: 102%
- % Released into Phosphate Buffer (pH 6.8) with 0.3% Tween 80 at sampling time (min) [1, 17]: 102%
- % Released into 0.1 N HCl with 0.3% Tween 80 at sampling time (min) [1, 18]: 100%
- % Released into Phosphate Buffer (pH 4.5) with 0.3% Tween 80 at sampling time (min) [1, 18]: 102%
- % Released into Phosphate Buffer (pH 6.8) with 0.3% Tween 80 at sampling time (min) [1, 18]: 102%
- % Released into 0.1 N HCl with 0.3% Tween 80 at sampling time (min) [1, 19]: 100%
- % Released into Phosphate Buffer (pH 4.5) with 0.3% Tween 80 at sampling time (min) [1, 19]: 102%
- % Released into Phosphate Buffer (pH 6.8) with 0.3% Tween 80 at sampling time (min) [1, 19]: 102%
- % Released into 0.1 N HCl with 0.3% Tween 80 at sampling time (min) [1, 20]: 99%
- % Released into Phosphate Buffer (pH 4.5) with 0.3% Tween 80 at sampling time (min) [1, 20]: 102%
- % Released into Phosphate Buffer (pH 6.8) with 0.3% Tween 80 at sampling time (min) [1, 20]: 102%
- Assay (%) ([2]; 3 Months): 96.4%
- Impurities (%), Major ([2]; 3 Months): 0.03%
- Impurities (%), Total ([2]; 3 Months): 0.03%
- Assay (%) ([2]; 6 Months): 97%
- Impurities (%), Major ([2]; 6 Months): 0.09%
- Impurities (%), Total ([2]; 6 Months): 0.09%
- Assay (%) ([2]; 9 Months): 95%
- Impurities (%), Major ([2]; 9 Months): 0.08%
- Impurities (%), Total ([2]; 9 Months): 0.13%
- Assay (%) ([2]; 12 Months): 96.5%
- Impurities (%), Major ([2]; 12 Months): 0.05%
- Impurities (%), Total ([2]; 12 Months): 0.05%
- Assay (%) ([2]; Initial): 98.2%
- Impurities (%), Major ([2]; Initial): 0.02%
- Impurities (%), Total ([2]; Initial): 0.02%
- Kidney dysfunction / kidney damage [3]: additively ameliorates kidney damage

Source: patent publication US11833133B2, “Solid oral pharmaceutical composition” (Orient Pharma Co., Ltd., priority 2020, dated 2023)
